From patent US8912178B2, “mTOR selective kinase inhibitors” (Xcovery Holdings Company, LLC, priority 2010, dated 2014) come the findings set out here.

The target in one assay is T1, PI3Kγ (Homo sapiens, UniProt P48736).
T1 construct: purchased Ambit Biosciences (contract assay)
The assay is described as follows: Kinase competition binding assay (Ambit Biosciences), PI3Kγ. The conditions noted are these: tested at Ambit Biosciences; read-out: IC50 against PI3Kγ. The method, then: (§1) Assays are performed as described in Fabian et al. (2005) Nature Biotechnology, vol. 23, p. 329 and in Karaman et al. (2008) Nature Biotechnology, vol. 26, p. 127.
(§2) Kinase assays. For most assays, kinase-tagged T7 phage strains are grown in parallel in 24-well blocks in an E. coli host derived from the BL21 strain. E. coli are grown to log-phase and are infected with T7 phage from a frozen stock (multiplicity of infection˜0.1) and are incubated with shaking at 32° C. until lysis (˜90 minutes). The lysates are centrifuged (6,000×g) and filtered ([…]) to remove cell debris. The remaining kinases are produced in HEK-293 cells and subsequently tagged with DNA for qPCR detection. Streptavidin-coated magnetic beads are treated with biotinylated small molecule ligands for 30 minutes at room temperature to generate affinity resins for kinase assays. The liganded beads are blocked with excess biotin and washed with blocking buffer (SeaBlock (Pierce), 1% BSA, 0.05% Tween 20, 1 mM DTT) to remove unbound ligand and to reduce non-specific phage binding. Binding reactions are assembled by combining kinases, liganded affinity beads, and test compounds in 1× binding buffer (20% SeaBlock, 0.17×PBS, 0.05% Tween 20, 6 mM DTT). Test compounds are prepared as 40× stocks in 100% DMSO and directly diluted into the assay. All reactions are performed in polypropylene 384-well plates in a final volume of 0.04 ml. The assay plates are incubated at room temperature with shaking for 1 hour and the affinity beads are washed with wash buffer (1×PBS, 0.05% Tween 20). The beads are then re-suspended in elution buffer (1×PBS, 0.05% Tween 20, 0.5 mM non-biotinylated affinity ligand) and are incubated at room temperature with shaking for 30 minutes. The kinase concentration in the eluates is measured by qPCR.
(§3) Compounds were tested using the above assay at Ambit Biosciences (San Diego, Calif., USA).

Another assay has as its system U87-MG cells. The assay is described as follows: Proliferation assay (Alamar blue), U87-MG. Conditions: Homo sapiens, U-87 MG, 48 h, 46-h incubation + 2-h Alamar blue, read-out: IC50 against proliferation of U87-MG cells. The assay is classed as cell-based. As to the method: (§4) Cells (U87-MG, A375, HeLa, A549, MCF7, and MCF7 ADR-res) are cultured in DMEM with 10% fetal bovine serum and streptomycin/penicillin. Solutions of the test compounds (1 μL) are spotted onto a 96-well culture plate, followed by addition of cells (1×10^4) in 100 μL. After 46-h incubation, 10 μL of Alamar blue reagent is added to each well. After 2-h, the excitation/emission wavelengths at 544/590 nm are measured using Fluostar.
In general terms: Alamar Blue is a resazurin reagent that responds to reducing activity.

The next assay addresses T2, PI3Kβ (Homo sapiens, UniProt P42338).
T2 construct: purchased Ambit Biosciences (contract assay)
The assay is described as follows: Kinase competition binding assay (Ambit Biosciences), PI3Kβ. The conditions noted are these: tested at Ambit Biosciences; read-out: IC50 against PI3Kβ. The method, then: as §1, §2, §3

In a further assay the test system is A549 cells. The assay is described as follows: Proliferation assay (Alamar blue), A549. Type of assay: cell-based. The conditions noted are these: Homo sapiens, 48 h; A549, 46-h incubation + 2-h Alamar blue; read-out: IC50 against proliferation of A549 cells. The method, then: as §4
A further assay has as its target T3, PI3Kδ (Homo sapiens, UniProt O00329).
T3 construct: purchased Ambit Biosciences (contract assay)
T3 sequence (O00329 1-1044): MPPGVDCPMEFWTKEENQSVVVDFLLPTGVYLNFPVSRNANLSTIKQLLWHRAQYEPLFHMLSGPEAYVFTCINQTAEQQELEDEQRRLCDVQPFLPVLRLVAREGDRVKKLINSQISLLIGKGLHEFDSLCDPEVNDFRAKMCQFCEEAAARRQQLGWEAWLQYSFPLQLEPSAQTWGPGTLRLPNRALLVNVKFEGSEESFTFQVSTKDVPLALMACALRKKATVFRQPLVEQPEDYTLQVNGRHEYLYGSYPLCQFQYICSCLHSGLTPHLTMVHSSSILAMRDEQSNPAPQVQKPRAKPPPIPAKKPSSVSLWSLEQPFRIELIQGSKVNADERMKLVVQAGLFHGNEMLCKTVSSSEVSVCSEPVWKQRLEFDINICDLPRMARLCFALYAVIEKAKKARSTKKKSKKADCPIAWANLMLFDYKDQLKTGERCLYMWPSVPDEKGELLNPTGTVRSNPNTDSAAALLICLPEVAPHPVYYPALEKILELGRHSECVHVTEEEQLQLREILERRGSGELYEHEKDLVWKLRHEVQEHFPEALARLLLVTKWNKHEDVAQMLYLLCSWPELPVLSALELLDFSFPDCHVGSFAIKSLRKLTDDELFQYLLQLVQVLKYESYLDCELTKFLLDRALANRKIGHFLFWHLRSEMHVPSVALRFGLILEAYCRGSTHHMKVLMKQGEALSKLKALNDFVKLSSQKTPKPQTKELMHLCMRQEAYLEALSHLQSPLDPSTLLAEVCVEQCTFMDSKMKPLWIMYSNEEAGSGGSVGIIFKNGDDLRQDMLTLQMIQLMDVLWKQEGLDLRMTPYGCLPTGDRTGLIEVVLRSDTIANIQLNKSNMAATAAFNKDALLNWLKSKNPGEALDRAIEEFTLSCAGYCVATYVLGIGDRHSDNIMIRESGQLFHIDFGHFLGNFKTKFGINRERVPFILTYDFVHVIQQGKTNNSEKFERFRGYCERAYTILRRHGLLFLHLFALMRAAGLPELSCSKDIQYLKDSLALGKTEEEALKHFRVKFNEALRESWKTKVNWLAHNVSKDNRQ
The assay is described as follows: Kinase competition binding assay (Ambit Biosciences), PI3Kδ. Conditions: tested at Ambit Biosciences; read-out: IC50 against PI3Kδ. The method, then:
as §1, §2, §3

Another assay deals with T4, mTOR (Homo sapiens, UniProt P42345).
T4 construct: purchased Ambit Biosciences (contract assay)
The assay is described as follows: Kinase competition binding assay (Ambit Biosciences), mTOR. The conditions noted are these: tested at Ambit Biosciences; read-out: IC50 against mTOR. As to the method: as §1, §2, §3

A further assay deals with T5, PI3Kα (Homo sapiens, UniProt P42336).
T5 construct: purchased Ambit Biosciences (contract assay)
T5 sequence (P42336 whole entry): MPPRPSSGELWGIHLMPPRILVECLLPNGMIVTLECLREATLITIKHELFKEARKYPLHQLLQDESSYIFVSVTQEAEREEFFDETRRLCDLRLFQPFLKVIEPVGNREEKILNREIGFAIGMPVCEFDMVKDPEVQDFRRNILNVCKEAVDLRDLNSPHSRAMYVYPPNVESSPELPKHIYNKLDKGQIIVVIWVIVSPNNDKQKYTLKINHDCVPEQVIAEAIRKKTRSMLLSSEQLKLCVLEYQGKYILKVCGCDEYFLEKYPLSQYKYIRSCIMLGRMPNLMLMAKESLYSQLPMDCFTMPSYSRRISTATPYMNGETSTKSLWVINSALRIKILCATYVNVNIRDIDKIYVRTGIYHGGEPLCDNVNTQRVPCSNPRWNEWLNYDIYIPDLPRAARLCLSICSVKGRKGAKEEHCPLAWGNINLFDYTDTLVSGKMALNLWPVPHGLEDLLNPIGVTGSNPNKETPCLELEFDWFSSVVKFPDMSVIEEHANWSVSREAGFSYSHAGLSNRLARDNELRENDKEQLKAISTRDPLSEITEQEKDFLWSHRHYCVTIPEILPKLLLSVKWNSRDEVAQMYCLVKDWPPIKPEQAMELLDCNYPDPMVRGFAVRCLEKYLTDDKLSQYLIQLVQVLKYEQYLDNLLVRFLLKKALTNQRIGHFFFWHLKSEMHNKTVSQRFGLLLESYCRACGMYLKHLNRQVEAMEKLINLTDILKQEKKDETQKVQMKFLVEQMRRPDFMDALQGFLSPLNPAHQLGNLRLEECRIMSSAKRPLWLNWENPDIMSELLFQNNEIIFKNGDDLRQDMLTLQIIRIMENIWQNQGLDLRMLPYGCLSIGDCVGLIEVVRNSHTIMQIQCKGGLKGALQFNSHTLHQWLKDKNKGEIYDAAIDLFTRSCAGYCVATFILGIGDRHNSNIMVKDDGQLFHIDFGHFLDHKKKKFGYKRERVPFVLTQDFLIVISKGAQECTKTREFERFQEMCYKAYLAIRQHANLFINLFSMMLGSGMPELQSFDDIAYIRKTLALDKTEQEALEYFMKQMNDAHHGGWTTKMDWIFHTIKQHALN
The assay is described as follows: Kinase competition binding assay (Ambit Biosciences), PI3Kα. Conditions: tested at Ambit Biosciences; read-out: IC50 against PI3Kα. The method, then: as §1, §2, §3

T2 sequence (P42338 whole entry): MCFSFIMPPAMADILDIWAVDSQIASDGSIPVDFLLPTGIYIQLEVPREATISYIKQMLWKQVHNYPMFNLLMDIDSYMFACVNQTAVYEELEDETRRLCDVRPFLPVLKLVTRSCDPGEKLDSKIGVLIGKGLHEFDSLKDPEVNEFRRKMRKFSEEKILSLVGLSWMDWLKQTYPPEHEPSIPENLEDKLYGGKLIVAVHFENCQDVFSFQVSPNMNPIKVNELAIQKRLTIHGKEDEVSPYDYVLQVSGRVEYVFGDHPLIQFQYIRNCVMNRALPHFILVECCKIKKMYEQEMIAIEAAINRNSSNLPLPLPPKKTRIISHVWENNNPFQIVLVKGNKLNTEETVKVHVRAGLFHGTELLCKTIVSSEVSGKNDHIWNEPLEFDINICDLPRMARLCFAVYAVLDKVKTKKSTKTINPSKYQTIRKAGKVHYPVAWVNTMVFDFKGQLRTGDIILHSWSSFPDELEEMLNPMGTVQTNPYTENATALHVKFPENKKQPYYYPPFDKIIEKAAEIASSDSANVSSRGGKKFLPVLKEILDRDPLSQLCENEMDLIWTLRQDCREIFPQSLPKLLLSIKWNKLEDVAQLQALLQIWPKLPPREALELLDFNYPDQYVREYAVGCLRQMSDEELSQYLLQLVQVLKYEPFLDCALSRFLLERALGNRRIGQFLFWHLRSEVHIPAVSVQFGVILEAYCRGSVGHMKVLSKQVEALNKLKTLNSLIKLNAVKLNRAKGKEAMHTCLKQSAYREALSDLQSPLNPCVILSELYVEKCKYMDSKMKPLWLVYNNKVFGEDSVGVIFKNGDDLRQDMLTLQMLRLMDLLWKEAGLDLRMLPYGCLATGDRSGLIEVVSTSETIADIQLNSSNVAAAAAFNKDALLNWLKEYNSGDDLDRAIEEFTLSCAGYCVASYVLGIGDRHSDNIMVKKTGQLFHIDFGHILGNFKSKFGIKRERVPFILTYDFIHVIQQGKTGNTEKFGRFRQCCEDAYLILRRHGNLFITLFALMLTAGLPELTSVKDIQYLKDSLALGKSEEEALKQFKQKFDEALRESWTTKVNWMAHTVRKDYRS
T1 sequence (P48736 whole entry): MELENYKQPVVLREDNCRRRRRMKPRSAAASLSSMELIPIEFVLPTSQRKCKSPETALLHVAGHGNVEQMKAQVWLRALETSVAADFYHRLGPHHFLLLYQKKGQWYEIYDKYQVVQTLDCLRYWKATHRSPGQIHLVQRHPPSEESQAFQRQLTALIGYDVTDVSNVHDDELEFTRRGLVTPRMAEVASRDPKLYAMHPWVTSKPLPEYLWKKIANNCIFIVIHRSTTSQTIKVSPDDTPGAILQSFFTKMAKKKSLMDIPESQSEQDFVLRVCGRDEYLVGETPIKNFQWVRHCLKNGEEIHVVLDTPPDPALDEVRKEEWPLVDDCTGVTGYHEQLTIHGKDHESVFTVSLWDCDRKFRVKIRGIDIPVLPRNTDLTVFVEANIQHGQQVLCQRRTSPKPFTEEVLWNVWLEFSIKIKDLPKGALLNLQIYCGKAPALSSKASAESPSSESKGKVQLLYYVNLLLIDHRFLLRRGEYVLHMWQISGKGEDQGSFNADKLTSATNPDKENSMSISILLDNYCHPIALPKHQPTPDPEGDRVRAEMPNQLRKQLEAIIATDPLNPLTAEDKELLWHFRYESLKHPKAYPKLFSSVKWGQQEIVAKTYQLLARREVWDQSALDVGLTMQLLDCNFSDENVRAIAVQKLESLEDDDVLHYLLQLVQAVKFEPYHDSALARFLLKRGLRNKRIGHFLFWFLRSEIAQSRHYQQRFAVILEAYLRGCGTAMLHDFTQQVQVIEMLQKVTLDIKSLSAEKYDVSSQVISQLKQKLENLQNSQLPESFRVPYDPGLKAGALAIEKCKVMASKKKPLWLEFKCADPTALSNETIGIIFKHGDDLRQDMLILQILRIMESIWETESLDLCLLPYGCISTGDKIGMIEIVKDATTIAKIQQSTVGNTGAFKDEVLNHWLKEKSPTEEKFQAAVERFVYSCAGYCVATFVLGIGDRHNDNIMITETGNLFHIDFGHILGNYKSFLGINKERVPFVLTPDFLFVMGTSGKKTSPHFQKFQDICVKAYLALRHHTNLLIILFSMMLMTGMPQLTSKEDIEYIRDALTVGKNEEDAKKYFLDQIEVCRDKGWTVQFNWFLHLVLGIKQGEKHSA

On to `CNC(=O)Nc1ccc(-c2nc(N3CCOCC3)nc3c2cnn3C2CCOCC2)cc1` [Example 13, 1-methyl-3-[4-(6-morpholino-1-tetrahydropyran-4-yl-pyrazolo[3,4-d]pyrimidin-4-yl)phenyl]urea], for which the IC50 at PI3Kγ was > 100 nM; in the assay with U87-MG cells, < 1000 nM; at PI3Kβ, > 100 nM; with A549 cells it was < 1000 nM; at PI3Kδ, > 100 nM; at mTOR, < 110 nM. Further, the IC50 on PI3Kα was > 100 nM.
